According to patent US7256199B1, “Pyrimidone derivatives” (Mitsubishi Chemical Corporation, priority 1998, dated 2007):
pIC50: −log10 of the molar value. Where a name gives a salt, the structure may show the parent alone.

molecular target: T1, bovine cerebral TPK1 (Bos taurus, UniProt A0A3Q1MT31); experiment: Inhibitory activity against P-GS1 phosphorylation by bovine cerebral TPK1; assay type: biochemical; details: 41.7 μM [γ-32P] ATP, 25° C., 2 hours, pH 6.5
T1 construct: Against P-GS1 Phosphorylation by Bovine Cerebral TPK1; from tissue; host or cells: bovine cerebrum (brain)
Procedure: Test Example: Inhibitory Activity of the Medicament of the Present Invention Against P-GS1 Phosphorylation by Bovine Cerebral TPK1
A mixture containing 100 mM MES-sodium hydroxide (pH 6.5), 1 mM magnesium acetate, 0.5 mM EGTA, 5 mM β-mercaptoethanol, 0.02% Tween 20, 10% glycerol, 12 μg/ml P-GS1, 41.7 μM [γ-^32P] ATP (68 kBq/ml), bovine cerebral TPK1 and a compound shown in Table (a final mixture contained 1.7% DMSO deriving from a solution of a test compound prepared in the presence of 10% DMSO) was used as a reaction system. The phosphorylation was started by adding ATP, and the reaction was conducted at 25° C. for 2 hours, and then stopped by adding 21% perchloric acid on ice cooling. The reaction mixture was centrifuged at 12,000 rpm for 5 minutes and adsorbed on P81 paper (Whatmann), and then the paper was washed four times with 75 mM phosphoric acid, three times with water and once with acetone. The paper was dried, and the residual radioactivity was measured using a liquid scintillation counter.

T1 sequence (A0A3Q1MT31 1-419): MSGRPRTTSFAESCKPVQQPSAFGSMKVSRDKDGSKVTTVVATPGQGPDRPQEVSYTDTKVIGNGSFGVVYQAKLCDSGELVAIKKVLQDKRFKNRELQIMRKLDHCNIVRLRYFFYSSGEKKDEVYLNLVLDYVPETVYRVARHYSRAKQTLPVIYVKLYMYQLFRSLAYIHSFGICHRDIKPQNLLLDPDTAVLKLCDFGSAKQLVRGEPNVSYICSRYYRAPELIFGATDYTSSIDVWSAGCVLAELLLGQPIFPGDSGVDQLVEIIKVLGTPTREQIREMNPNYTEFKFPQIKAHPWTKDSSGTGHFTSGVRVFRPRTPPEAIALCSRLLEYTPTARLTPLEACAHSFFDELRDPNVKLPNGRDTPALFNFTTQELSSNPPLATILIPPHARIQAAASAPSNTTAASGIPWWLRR

Compound	pIC50
O=c1cc(-c2ccncc2)nc(-c2cccnc2)[nH]1 [Example 1, 2-(3-pyridyl)-6-(4-pyridyl)pyrimidin-4-one]	5.64
CN(C)Cc1cccc(-c2nc(-c3ccncc3)cc(=O)[nH]2)c1 [Example 27, 2-(3-(dimethylaminomethyl)phenyl)-6-(4-pyridyl)pyrimidin-4-one dihydrochloride]	5.48
O=c1cc(-c2ccncc2)nc(Cc2ccc(Cl)cc2)[nH]1 [Example 33, 2-(4-chlorobenzyl)-6-(4-pyridyl)pyrimidin-4-one]	5.26
CC(C)c1nc(-c2ccncc2)cc(=O)[nH]1 [Example 5, 2-isopropyl-6-(4-pyridyl)pyrimidin-4-one]	5.68
Cc1ccc(Cc2nc(-c3ccncc3)cc(=O)[nH]2)cc1 [Example 31, 2-(4-methylbenzyl)-6-(4-pyridyl)pyrimidin-4-one]	5.54
O=c1cc(-c2ccncc2)nc(-c2cccc(Br)c2)[nH]1 [Example 19, 2-(3-bromophenyl)-6-(4-pyridyl)pyrimidin-4-one]	5.06
Cc1nc(-c2ccncc2)cc(=O)[nH]1 [Example 2, 2-methyl-6-(4-pyridyl)pyrimidin-4-one]	5.52
CC(C)Cc1nc(-c2ccncc2)cc(=O)[nH]1 [Example 7, 2-isobutyl-6-(4-pyridyl)pyrimidin-4-one]	5.62
Cc1cccc(-c2nc(-c3ccncc3)cc(=O)[nH]2)c1 [Example 15, 6-(4-pyridyl)-2-(3-tolyl)pyrimidin-4-one]	5.66
O=c1cc(-c2ccncc2)nc(Cc2ccccc2)[nH]1 [Example 28, 2-benzyl-6-(4-pyridyl)pyrimidin-4-one]	5.89
Cc1ccc(-c2nc(-c3ccncc3)cc(=O)[nH]2)cc1 [Example 16, 6-(4-pyridyl)-2-(4-tolyl)pyrimidin-4-one]	5.32
O=c1cc(-c2ccncc2)nc(-c2ccc([N+](=O)[O-])cc2)[nH]1 [Example 24, 2-(4-nitrophenyl)-6-(4-pyridyl)pyrimidin-4-one]	5.28
N#Cc1cccc(-c2nc(-c3ccncc3)cc(=O)[nH]2)c1 [Example 22, 2-(3-cyanophenyl)-6-(4-pyridyl)pyrimidin-4-one]	5.21
Cc1ccccc1Cc1nc(-c2ccncc2)cc(=O)[nH]1 [Example 29, 2-(2-methylbenzyl)-6-(4-pyridyl)pyrimidin-4-one]	5.85
Cc1ccccc1-c1nc(-c2ccncc2)cc(=O)[nH]1 [Example 14, 6-(4-pyridyl)-2-(2-tolyl)pyrimidin-4-one]	5.40
CCCCc1nc(-c2ccncc2)cc(=O)[nH]1 [Example 6, 2-butyl-6-(4-pyridyl)pyrimidin-4-one]	5.89
O=c1cc(-c2ccncc2)nc(-c2ccccc2)[nH]1 [Example 12, 2-phenyl-6-(4-pyridyl)pyrimidin-4-one]	5.74
2-(butoxyphenylamino)-6-(4-pyridyl)pyrimidin-4-one [Example 90]	5.20

Next, values leading:

pIC50	Compound
6.11	O=c1cc(-c2ccncc2)nc(Cc2cccc(-c3ccccc3)c2)[nH]1 [Example 96, 2-(3-phenylbenzyl)-6-(4-pyridyl)pyrimidin-4-one]
5.55	CN(Cc1ccccc1)c1nc(-c2ccncc2)cc(=O)[nH]1 [Example 79, 2-(N-benzyl-N-methylamino)-6-(4-pyridyl)pyrimidin-4-one]
5.42	O=c1cc(-c2ccncc2)nc(-c2ccccn2)[nH]1 [Example 37, 2-(2-pyridyl)-6-(4-pyridyl)pyrimidin-4-one]
5.89	O=c1cc(-c2ccncc2)nc(Cc2ccccc2Cl)[nH]1 [Example 68, 2-(2-chlorobenzyl)-6-(4-pyridyl)pyrimidin-4-one]
5.55	O=c1cc(-c2ccncc2)nc(C2CCCCC2)[nH]1 [Example 83, 2-cyclohexyl-6-(4-pyridyl)pyrimidin-4-one]
5.96	O=c1cc(-c2ccncc2)nc(NCc2ccccc2)[nH]1 [Example 80, 2-benzylamino-6-(4-pyridyl)pyrimidin-4-one]
5.74	COc1cccc(Nc2nc(-c3ccncc3)cc(=O)[nH]2)c1 [Example 93, 2-(3-methoxyphenylamino)-6-(4-pyridyl)pyrimidin-4-one]
6.02	CCCN(CCC)c1nc(-c2ccncc2)cc(=O)[nH]1 [Example 85, 2-dipropylamino-6-(4-pyridyl)pyrimidin-4-one]
5.60	O=c1cc(-c2ccncc2)nc(N2CCCCC2)[nH]1 [Example 69, 2-(1-piperidino)-6-(4-pyridyl)pyrimidin-4-one]
5.43	CN(C)c1nc(-c2ccncc2)cc(=O)[nH]1 [Example 44, 2-dimethylamino-6-(4-pyridyl)pyrimidin-4-one]
6.30	O=c1cc(-c2ccncc2)nc(CCCc2ccccc2)[nH]1 [Example 36, 2-(3-phenylpropyl)-6-(4-pyridyl)pyrimidin-4-one]
5.24	Nc1nc(-c2ccncc2)cc(=O)[nH]1 [Example 43, 2-amino-6-(4-pyridyl)pyrimidin-4-one]
5.77	O=c1cc(-c2ccncc2)nc(-c2ccc(O)cc2)[nH]1 [Example 97, 2-(4-hydroxyphenyl)-6-(4-pyridyl)pyrimidin-4-one]
5.96	CCN(CC)c1nc(-c2ccncc2)cc(=O)[nH]1 [Example 71, 2-(diethylamino)-6-(4-pyridyl)pyrimidin-4-one]
5.59	O=c1cc(-c2ccncc2)nc(N2CCCC2)[nH]1 [Example 87, 2-(1-pyrrolidinyl)-6-(4-pyridyl)pyrimidin-4-one]
5.85	O=c1cc(-c2ccncc2)nc(NCC2CCCCC2)[nH]1 [Example 88, 2-cyclohexylmethylamino-6-(4-pyridyl)pyrimidin-4-one]
5.37	O=c1cc(-c2ccncc2)nc(N2CCOCC2)[nH]1 [Example 82, 2-(4-morpholinyl)-6-(4-pyridyl)pyrimidin-4-one]
5.00	O=c1cc(-c2ccncc2)nc(NCCCO)[nH]1 [Example 86, 2-(3-hydroxypropylamino)-6-(4-pyridyl)pyrimidin-4-one]
5.74	O=c1cc(-c2ccncc2)nc(-c2ccncc2)[nH]1 [Example 38, 2,6-di(4-pyridyl)pyrimidin-4-one]
5.64	2-(ethylphenylamino)-6-(4-pyridyl)pyrimidin-4-one [Example 89]
5.05	O=c1cc(-c2ccncc2)nc(CCc2ccccc2)[nH]1 [Example 35, 2-(2-phenylethyl)-6-(4-pyridyl)pyrimidin-4-one]
5.80	2-(bromophenylamino)-6-(4-pyridyl)pyrimidin-4-one [Example 91]
5.96	CC(C)CN(C)c1nc(-c2ccncc2)cc(=O)[nH]1 [Example 84, 2-(N-isobutyl-N-methylamino)-6-(4-pyridyl)pyrimidin-4-one]
5.80	O=c1cc(-c2ccncc2)nc(Nc2ccccc2)[nH]1 [Example 92, 2-phenylamino-6-(4-pyridyl)pyrimidin-4-one]
5.12	O=c1cc(-c2ccncc2)nc(Cc2cccs2)[nH]1 [Example 42, 6-(4-pyridyl)-2-(2-thienylmethyl)pyrimidin-4-one]
